Square brackets hold non-standard residues; d marks the D form. Peptide text beside a SMILES is read from it. * marks the point of attachment. DOTA = O=C(O)CN1CCN(CC(=O)O)CCN(CC(=O)*)CCN(CC(=O)O)CC1; Gly(N-(3-F-4-Me-benzyl)) = Cc1ccc(CNCC(=O)*)cc1F; Gly(N-3-F-4-Me-benzyl) = Cc1ccc(CNCC(=O)O)cc1F; Bpa = N[C@@H](Cc1ccc(C(=O)c2ccccc2)cc1)C(=O)O; Gly(Nα-CH2(4-Pyr)) = O=C(O)CNCc1ccncc1; HO(CH2CH2O)2CH2CH2CO = O=C(CCOCCOCCO)*; d2Nal = N[C@H](Cc1ccc2ccccc2c1)C(=O)O; NBzl(4-I)Gly = O=C(O)CNCc1ccc(I)cc1; d4Pal = N[C@H](Cc1ccncc1)C(=O)O; N(octyl)Gly = CCCCCCCCNCC(=O)O; X5 = O=C(CNCc1ccc2ccccc2c1)*; X15 = O=C(CNCCc1ccc(I)cc1)*; Api = NC1(C(=O)O)CCNCC1; X13 = O=C(CNCC1CCSCC1)*; PEG2 = NCCOCCOCCC(=O)O; Ahx = NCCCCCC(=O)O; azaGly = NNC(=O)O; Sar = CNCC(=O)O

For orientation: Ki means a measure of affinity in units of concentration, obtained from inhibition or displacement.

Chain of human kisspeptin receptor (Q969F8 whole entry): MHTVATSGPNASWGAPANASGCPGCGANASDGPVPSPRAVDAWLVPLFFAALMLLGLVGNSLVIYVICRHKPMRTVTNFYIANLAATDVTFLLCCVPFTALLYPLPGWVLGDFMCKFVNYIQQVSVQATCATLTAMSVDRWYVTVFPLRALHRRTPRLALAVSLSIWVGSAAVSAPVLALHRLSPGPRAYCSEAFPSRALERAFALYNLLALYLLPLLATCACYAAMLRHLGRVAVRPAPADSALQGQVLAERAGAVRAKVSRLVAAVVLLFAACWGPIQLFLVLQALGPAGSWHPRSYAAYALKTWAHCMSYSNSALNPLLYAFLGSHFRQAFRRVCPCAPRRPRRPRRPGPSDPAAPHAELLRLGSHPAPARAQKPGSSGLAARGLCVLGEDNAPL

The target in the assay is human kisspeptin receptor (Homo sapiens (Human), UniProt Q969F8). Nature of the assay: Human KISS1R binding assay (membrane competition binding). The note with it: 90 min at room temperature; competition with 0.2 nM [125I]-metastin (45-54); Flp-In T-Rex 293 kisspeptin membranes; metal complexes nonradioactive Ga, In, Lu; read-out: hKiSSR Binding Ki (90 min). The method in brief:
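Membranes from tetracycline-induced (48 h) Flp-In T-Rex 293 cells expressing receptor, 5–10 μg, incubated 90 min at room temperature with 0.2 nM [125I]-metastin (45-54) and competitor (typically 0–10,000 nM) in Tris/Mg/Ca/EGTA/0.1% BSA, pH 7.4. Filtration, washing, counting; Ki by non-linear regression.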
On to `Cc1ccc(CNCC(=O)N2CCC(NC(=O)[C@H](CC(C)C)NC(=O)NNC(=O)[C@H](Cc3ccccc3)NC(=O)[C@@H](NC(=O)[C@H](CC(N)=O)NC(=O)[C@H](Cc3ccc(C(=O)c4ccccc4)cc3)NC(=O)[C@@H](Cc3ccc(O)cc3)NC(=O)CCCCCNC(=O)CN3CCN(CC(=O)O)CCN(CC(=O)O)CCN(CC(=O)O)CC3)[C@@H](C)O)(C(=O)N[C@@H](Cc3c[nH]c4ccccc34)C(N)=O)CC2)cc1F` [Compound 364] ({DOTA-Ahx}-[dY][Bpa]NTF[azaGly]L[Api](Gly(N-(3-F-4-Me-benzyl)))W-NH2), for which the Ki is less than 10 nM.
As for `Cc1ccc(CNCC(=O)N2CCC(NC(=O)[C@H](CC(C)C)NC(=O)NNC(=O)[C@H](Cc3ccccc3)NC(=O)[C@@H](NC(=O)[C@H](CC(N)=O)NC(=O)[C@@H](Cc3ccc4ccccc4c3)NC(=O)[C@@H](Cc3ccc(O)cc3)NC(=O)CNC(=O)CN3CCN(CC(=O)O)CCN(CC(=O)O)CCN(CC(=O)O)CC3)[C@@H](C)O)(C(=O)N[C@@H](Cc3c[nH]c4ccccc34)C(N)=O)CC2)cc1F` [Compound 365] ({DOTA}-G[dY][d2Nal]NTF[azaGly]L[Api](Gly(N-(3-F-4-Me-benzyl)))W-NH2), the inhibitory constant (Ki) was less than 10 nM.
For `Cc1ccc(CNCC(=O)N2CCC(NC(=O)[C@H](CC(C)C)NC(=O)NNC(=O)[C@H](Cc3ccccc3)NC(=O)[C@@H](NC(=O)[C@H](CC(N)=O)NC(=O)[C@@H](Cc3c[nH]c4ccccc34)NC(=O)[C@@H](Cc3ccc(O)cc3)NC(=O)CCCCCNC(=O)CN3CCN(CC(=O)O)CCN(CC(=O)O)CCN(CC(=O)O)CC3)[C@@H](C)O)(C(=O)N[C@@H](Cc3ccc(O)cc3)C(N)=O)CC2)cc1F` [Compound 366] ({DOTA-Ahx}-[dY][dW]NTF[azaGly]L[Api](Gly(N-(3-F-4-Me-benzyl)))Y-NH2), the inhibition constant (Ki) was less than 10 nM.
As for `Cc1ccc(CNCC(=O)N2CCC(NC(=O)[C@H](CC(C)C)NC(=O)NNC(=O)[C@H](Cc3ccccc3)NC(=O)[C@@H](NC(=O)[C@H](CC(N)=O)NC(=O)[C@@H](Cc3ccc4ccccc4c3)NC(=O)[C@@H](Cc3ccc(O)cc3)NC(=O)CCCCCNC(=O)CN3CCN(CC(=O)O)CCN(CC(=O)O)CCN(CC(=O)O)CC3)[C@@H](C)O)(C(=O)N[C@@H](Cc3ccc(O)cc3)C(N)=O)CC2)cc1F` [Compound 367] ({DOTA-Ahx}-[dY][d2Nal]NTF[azaGly]L[Api](Gly(N-(3-F-4-Me-benzyl)))Y-NH2), the figure is less than 10 nM.
As to `Cc1ccc(CNCC(=O)N2CCC(NC(=O)[C@H](CC(C)C)NC(=O)NNC(=O)[C@H](Cc3ccccc3)NC(=O)[C@@H](NC(=O)[C@H](CC(N)=O)NC(=O)[C@@H](Cc3ccncc3)NC(=O)[C@@H](Cc3ccc(O)cc3)NC(=O)CCOCCOCCNC(=O)CN3CCN(CC(=O)O)CCN(CC(=O)O)CCN(CC(=O)O)CC3)[C@@H](C)O)(C(=O)N[C@@H](Cc3c[nH]c4ccccc34)C(N)=O)CC2)cc1F` [Compound 368] ({DOTA-PEG2}-[dY][d4Pal]NTF[azaGly]L[Api](Gly(N-(3-F-4-Me-benzyl)))W-NH2), the Ki was less than 10 nM.
Turning to `CC(C)C[C@H](NC(=O)NNC(=O)[C@H](Cc1ccccc1)NC(=O)[C@@H](NC(=O)[C@H](CC(N)=O)NC(=O)[C@@H](Cc1ccc2ccccc2c1)NC(=O)[C@@H](Cc1ccc(O)cc1)NC(=O)CCCCCNC(=O)CN1CCN(CC(=O)O)CCN(CC(=O)O)CCN(CC(=O)O)CC1)[C@@H](C)O)C(=O)NC1(C(=O)N[C@H](Cc2c[nH]c3ccccc23)C(N)=O)CCN(C(=O)CNCc2ccncc2)CC1` [Compound 370] ({DOTA-Ahx}-[dY][d2Nal]NTF[azaGly]L[Api](Gly(Nα-CH2(4-Pyr)))[dW]-NH2), the inhibition constant Ki was greater than 100 nM.
As to `CC(C)C[C@H](NC(=O)NNC(=O)[C@H](Cc1ccccc1)NC(=O)[C@@H](NC(=O)[C@H](CC(N)=O)NC(=O)[C@@H](Cc1ccc2ccccc2c1)NC(=O)[C@@H](Cc1ccc(O)cc1)NC(=O)CCCCCNC(=O)CN1CCN(CC(=O)O)CCN(CC(=O)O)CCN(CC(=O)O)CC1)[C@@H](C)O)C(=O)NC1(C(=O)N[C@H](Cc2c[nH]c3ccccc23)C(N)=O)CCN(C(=O)CNCc2ccc(I)cc2)CC1` [Compound 371] ({DOTA-Ahx}-[dY][d2Nal]NTF[azaGly]L[Api](NBzl(4-I)Gly)[dW]-NH2), the inhibitory constant (Ki) was less than 10 nM.
On to `CC(C)C[C@H](NC(=O)NNC(=O)[C@H](Cc1ccccc1)NC(=O)[C@@H](NC(=O)[C@H](CC(N)=O)NC(=O)[C@@H](Cc1ccc2ccccc2c1)NC(=O)[C@@H](Cc1ccc(O)cc1)NC(=O)CCCCCNC(=O)CN1CCN(CC(=O)O)CCN(CC(=O)O)CCN(CC(=O)O)CC1)[C@@H](C)O)C(=O)NC1(C(=O)N[C@H](Cc2c[nH]c3ccccc23)C(N)=O)CCN(C(=O)CNCCc2ccc(I)cc2)CC1` [Compound 373] ({DOTA-Ahx}-[dY][d2Nal]NTF[azaGly]L[Api](X15)[dW]-NH2), for which the Ki is 10 to 100 nM.
Under `CCCCCCCCNCC(=O)N1CCC(NC(=O)[C@H](CC(C)C)NC(=O)NNC(=O)[C@H](Cc2ccccc2)NC(=O)[C@@H](NC(=O)[C@H](CC(N)=O)NC(=O)[C@@H](Cc2ccc3ccccc3c2)NC(=O)[C@@H](Cc2ccc(O)cc2)NC(=O)CCCCCNC(=O)CN2CCN(CC(=O)O)CCN(CC(=O)O)CCN(CC(=O)O)CC2)[C@@H](C)O)(C(=O)N[C@H](Cc2c[nH]c3ccccc23)C(N)=O)CC1` [Compound 374] ({DOTA-Ahx}-[dY][d2Nal]NTF[azaGly]L[Api](N(octyl)Gly)[dW]-NH2) stands less than 10 nM.
Under `CC(C)C[C@H](NC(=O)NNC(=O)[C@H](Cc1ccccc1)NC(=O)[C@@H](NC(=O)[C@H](CC(N)=O)NC(=O)[C@@H](Cc1ccc2ccccc2c1)NC(=O)[C@@H](Cc1ccc(O)cc1)NC(=O)CCCCCNC(=O)CN1CCN(CC(=O)O)CCN(CC(=O)O)CCN(CC(=O)O)CC1)[C@@H](C)O)C(=O)NC1(C(=O)N[C@H](Cc2c[nH]c3ccccc23)C(N)=O)CCN(C(=O)CNCC2CCSCC2)CC1` [Compound 375] ({DOTA-Ahx}-[dY][d2Nal]NTF[azaGly]L[Api](X13)[dW]-NH2) stands greater than 100 nM.
Consider `CC(C)C[C@H](NC(=O)NNC(=O)[C@H](Cc1ccccc1)NC(=O)[C@@H](NC(=O)[C@H](CC(N)=O)NC(=O)[C@@H](Cc1ccc2ccccc2c1)NC(=O)[C@@H](Cc1ccc(O)cc1)NC(=O)CCCCCNC(=O)CN1CCN(CC(=O)O)CCN(CC(=O)O)CCN(CC(=O)O)CC1)[C@@H](C)O)C(=O)NC1(C(=O)N[C@H](Cc2c[nH]c3ccccc23)C(N)=O)CCN(C(=O)CNCc2ccc3ccccc3c2)CC1` [Compound 376] ({DOTA-Ahx}-[dY][d2Nal]NTF[azaGly]L[Api](X5)[dW]-NH2), for which the inhibitory constant (Ki) lay within 10 to 100 nM.
On to `Cc1ccc(CNCC(=O)N2CCC(NC(=O)[C@H](CC(C)C)NC(=O)NNC(=O)[C@H](Cc3ccccc3)NC(=O)[C@@H](NC(=O)[C@H](CC(N)=O)NC(=O)[C@H](CCCCNC(=O)CN3CCN(CC(=O)O)CCN(CC(=O)O)CCN(CC(=O)O)CC3)NC(=O)[C@@H](Cc3ccc(O)cc3)NC(=O)CCOCCOCCO)[C@@H](C)O)(C(=O)N[C@@H](Cc3c[nH]c4ccccc34)C(N)=O)CC2)cc1F` [Compound 379] ({HO(CH2CH2O)2CH2CH2CO}-[dY]K(DOTA)NTF[azaGly]L[Api](Gly(N-(3-F-4-Me-benzyl)))W-NH2), for which the Ki was less than 10 nM.
Regarding `CC(=O)N[C@H](Cc1ccc(O)cc1)C(=O)N[C@@H](CCCCNC(=O)CN1CCN(CC(=O)O)CCN(CC(=O)O)CCN(CC(=O)O)CC1)C(=O)N[C@@H](CC(N)=O)C(=O)N[C@H](C(=O)N[C@@H](Cc1ccccc1)C(=O)NNC(=O)N[C@@H](CC(C)C)C(=O)NC1(C(=O)N[C@@H](Cc2c[nH]c3ccccc23)C(N)=O)CCN(C(=O)CNCc2ccc(C)c(F)c2)CC1)[C@@H](C)O` [Compound 380] (Ac-[dY]K(DOTA)NTF[azaGly]L[Api](Gly(N-(3-F-4-Me-benzyl)))W-NH2), the Ki was less than 10 nM.
As for `Cc1ccc(CNCC(=O)N2CCC(NC(=O)[C@H](CC(C)C)NC(=O)NNC(=O)[C@H](Cc3ccccc3)NC(=O)[C@@H](NC(=O)[C@H](CC(N)=O)NC(=O)[C@@H](Cc3c[nH]c4ccccc34)NC(=O)[C@@H](Cc3ccc(O)cc3)NC(=O)CCOCCOCCNC(=O)CN3CCN(CC(=O)O)CCN(CC(=O)O)CCN(CC(=O)O)CC3)[C@@H](C)O)(C(=O)N[C@@H](Cc3c[nH]c4ccccc34)C(N)=O)CC2)cc1F` [Compound 382] ({DOTA-PEG2}-[dY][dW]NTF[azaGly]L[Api](Gly(N-(3-F-4-Me-benzyl)))W-NH2), the inhibitory constant (Ki) was less than 10 nM.
As for `Cc1ccc(CNCC(=O)N2CCC(NC(=O)[C@H](CC(C)C)NC(=O)NNC(=O)[C@H](Cc3ccccc3)NC(=O)[C@@H](NC(=O)[C@H](CC(N)=O)NC(=O)[C@@H](Cc3c[nH]c4ccccc34)NC(=O)[C@@H](Cc3ccc(O)cc3)NC(=O)CCCCCNC(=O)CN3CCN(CC(=O)O)CCN(CC(=O)O)CCN(CC(=O)O)CC3)[C@@H](C)O)(C(=O)N[C@H](Cc3c[nH]c4ccccc34)C(N)=O)CC2)cc1F` [Compound 383] ({DOTA-Ahx}-[dY][dW]NTF[azaGly]L[Api](Gly(N-(3-F-4-Me-benzyl)))[dW]-NH2), the figure is less than 10 nM.
`CNCC(=O)N1CCC(NC(=O)[C@H](CC(C)C)NC(=O)NNC(=O)[C@H](Cc2ccccc2)NC(=O)[C@@H](NC(=O)[C@H](CC(N)=O)NC(=O)[C@H](CCCCNC(=O)CN2CCN(CC(=O)O)CCN(CC(=O)O)CCN(CC(=O)O)CC2)NC(=O)[C@@H](Cc2ccc(O)cc2)NC(=O)CCOCCOCCNC(=O)CNCc2ccc(C)c(F)c2)[C@@H](C)O)(C(=O)N[C@@H](Cc2c[nH]c3ccccc23)C(N)=O)CC1` [Compound 384] (H-[Gly(N-3-F-4-Me-benzyl)][PEG2][dY]K(DOTA)NTF[azaGly]L[Api](Sar)W-NH2): the Ki is less than 10 nM.
On to `CNCC(=O)N1CCC(NC(=O)[C@H](CC(C)C)NC(=O)NNC(=O)[C@H](Cc2ccccc2)NC(=O)[C@@H](NC(=O)[C@H](CC(N)=O)NC(=O)[C@H](CCCCNC(=O)CN2CCN(CC(=O)O)CCN(CC(=O)O)CCN(CC(=O)O)CC2)NC(=O)[C@@H](Cc2ccc(O)cc2)NC(=O)CNCc2ccc(C)c(F)c2)[C@@H](C)O)(C(=O)N[C@@H](Cc2c[nH]c3ccccc23)C(N)=O)CC1` [Compound 386] (H-[Gly(N-3-F-4-Me-benzyl)][dY]K(DOTA)NTF[azaGly]L[Api](Sar)W-NH2), for which the Ki is less than 10 nM.

The values are drawn from US20250312499A1, “KISSPEPTIN RECEPTOR (KISS1R) TARGETED THERAPEUTICS AND USES THEREOF” (priority 2024, published 2025).
